Reference: patent publication US10344060B2 (priority 2013, dated 2019)
Entries after “also recorded” stand apart in the source; their conditions may differ. Read-outs that look alike come from different tables or passages of the source.

Assays:
[1] = rat plasma, 37° C., incubation time 0 hr (normalization point)
Nav1.7 [2] = molecular target: Nav1.7 (Rattus norvegicus, UniProt O08562); details: read-out: TTX IC50; cited from earlier work
Nav1.4 = Nav1.4 (Rattus norvegicus, UniProt P15390); details: read-out: TTX IC50; cited from earlier work
Nav1.3 = Nav1.3 (Rattus norvegicus, UniProt P08104); details: read-out: TTX IC50; cited from earlier work
Nav1.8 = Nav1.8 (Rattus norvegicus, UniProt Q62968); details: read-out: TTX IC50; cited from earlier work
[3] = tested on: mouse saphenous nerve C-fibers
Nav1.6 = Nav1.6 (Rattus norvegicus, UniProt O88420); details: read-out: TTX IC50; cited from earlier work
male Sprague-Dawley rats [4] = details: 5.0 mg/kg s.c.; 2 h post peptide injection
[5] = tested on: TTX-sensitive Nav channels in Sprague Dawley rat DRG neuron
hNav1.7 [6] = molecular target: T1, hNav1.7 (Homo sapiens, UniProt Q15858); experiment: cell-based; format: cell-based
[7] = cyno plasma, 37° C., incubation 0 hr (normalisation point)
[8] = mouse plasma, 37° C., incubation 0 hr (normalisation point)
[9] = 1 mg/kg s.c.
[10] = tested on: TTX-sensitive Nav channels in mouse DRG neuron
male Sprague-Dawley rats [11] = details: 5.0 mg/kg s.c.
male CD-1 mice [12] = details: 5.0 mg/kg s.c.
hNav1.7 [13] = molecular target: T1, hNav1.7; experiment: cell-based; details: ratio of IonWorks Quattro IC50 values, Nav1.4 over Nav1.7
hNav1.4 = hNav1.4 (Homo sapiens, UniProt P35499); experiment: cell-based; format: cell-based; details: PX
in vivo [14] = details: male, CD-1, mouse, sc
in vivo [15] = details: male, Sprague-Dawley, rat, sc, 5 mg/kg
male CD-1 mice [16] = tested on: male CD-1 mice
hNav1.7 [17] = molecular target: T1, hNav1.7; experiment: cell-based; format: cell-based; details: Table 15; read-out: PX hNav1.7 Tonic IC50
[18] = human plasma, 37° C., incubation 0 hr (normalisation point)
hNav1.6 = hNav1.6 (Homo sapiens, UniProt Q9UQD0); experiment: cell-based; format: cell-based
male CD-1 mice [19] = details: for terminal exposure (peptide plasma concentration): 2 h post peptide injection
TTX-resistant VGSCs = details: cited from earlier work
[20] = tested on: TTX-sensitive sodium currents in adult rat DRG neurons; details: cited from earlier work
NaV1.7 [21] = molecular target: NaV1.7 (Homo sapiens, UniProt Q15858); details: read-out: EC50, impairs fast inactivation; cited from earlier work
rats [22] = details: rat, in vivo; cited from earlier work
rats [23] = details: rat, in vivo, 0.1 mg/kg; cited from earlier work
[24] = 0.1, 0.3, and 1.0 mg/kg s.c., 1-hour pre-treatment

Chain of hNav1.6 (Q9UQD0 whole entry): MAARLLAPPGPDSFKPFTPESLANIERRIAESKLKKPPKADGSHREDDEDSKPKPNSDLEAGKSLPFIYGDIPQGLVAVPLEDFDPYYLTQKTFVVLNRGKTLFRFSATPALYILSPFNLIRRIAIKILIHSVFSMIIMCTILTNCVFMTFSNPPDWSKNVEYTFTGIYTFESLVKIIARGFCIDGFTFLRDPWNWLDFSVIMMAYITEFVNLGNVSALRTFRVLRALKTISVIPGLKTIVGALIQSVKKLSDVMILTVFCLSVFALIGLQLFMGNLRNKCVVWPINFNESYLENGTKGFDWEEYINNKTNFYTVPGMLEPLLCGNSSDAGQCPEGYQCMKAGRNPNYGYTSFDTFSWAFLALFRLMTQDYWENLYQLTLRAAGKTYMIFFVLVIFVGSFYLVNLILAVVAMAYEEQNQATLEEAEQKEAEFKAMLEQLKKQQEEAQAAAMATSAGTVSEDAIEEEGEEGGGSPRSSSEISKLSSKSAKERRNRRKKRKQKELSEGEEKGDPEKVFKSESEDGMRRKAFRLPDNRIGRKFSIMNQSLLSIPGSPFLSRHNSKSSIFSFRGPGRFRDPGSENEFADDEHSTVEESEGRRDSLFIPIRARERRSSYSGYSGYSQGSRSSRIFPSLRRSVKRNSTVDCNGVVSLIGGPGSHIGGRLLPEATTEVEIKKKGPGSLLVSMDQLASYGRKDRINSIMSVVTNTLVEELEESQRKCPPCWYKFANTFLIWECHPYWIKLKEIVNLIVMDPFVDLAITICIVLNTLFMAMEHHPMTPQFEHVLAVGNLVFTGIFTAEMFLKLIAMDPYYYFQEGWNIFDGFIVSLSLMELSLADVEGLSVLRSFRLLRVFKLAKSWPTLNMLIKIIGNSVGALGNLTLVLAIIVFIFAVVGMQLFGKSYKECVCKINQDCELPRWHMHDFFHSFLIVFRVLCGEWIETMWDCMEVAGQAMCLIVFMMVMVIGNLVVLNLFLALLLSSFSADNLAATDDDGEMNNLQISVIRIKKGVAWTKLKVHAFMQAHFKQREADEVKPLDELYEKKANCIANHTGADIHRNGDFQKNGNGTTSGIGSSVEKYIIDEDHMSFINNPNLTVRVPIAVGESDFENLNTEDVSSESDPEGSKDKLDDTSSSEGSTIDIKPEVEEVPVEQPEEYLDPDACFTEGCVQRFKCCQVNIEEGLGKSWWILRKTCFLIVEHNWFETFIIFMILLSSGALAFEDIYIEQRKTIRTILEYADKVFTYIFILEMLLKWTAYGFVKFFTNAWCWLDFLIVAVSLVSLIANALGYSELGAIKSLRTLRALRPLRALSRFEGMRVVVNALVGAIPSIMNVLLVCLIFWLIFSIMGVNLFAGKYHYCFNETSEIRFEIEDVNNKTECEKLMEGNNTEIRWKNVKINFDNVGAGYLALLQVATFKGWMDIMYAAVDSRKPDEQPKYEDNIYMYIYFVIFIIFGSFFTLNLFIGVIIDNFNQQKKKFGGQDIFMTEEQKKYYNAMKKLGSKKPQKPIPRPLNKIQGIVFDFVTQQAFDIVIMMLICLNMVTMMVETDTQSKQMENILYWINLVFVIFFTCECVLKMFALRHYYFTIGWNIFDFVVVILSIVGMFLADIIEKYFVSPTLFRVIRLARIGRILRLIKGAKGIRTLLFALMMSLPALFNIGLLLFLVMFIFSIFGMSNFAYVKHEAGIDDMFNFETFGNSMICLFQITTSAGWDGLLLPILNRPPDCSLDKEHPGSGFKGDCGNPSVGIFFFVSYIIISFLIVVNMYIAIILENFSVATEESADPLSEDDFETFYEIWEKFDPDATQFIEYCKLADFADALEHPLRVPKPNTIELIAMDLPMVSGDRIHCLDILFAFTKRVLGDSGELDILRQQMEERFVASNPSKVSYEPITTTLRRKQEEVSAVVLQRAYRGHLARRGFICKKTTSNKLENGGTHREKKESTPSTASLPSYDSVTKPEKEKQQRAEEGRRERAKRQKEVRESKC
T1 sequence (Q15858 whole entry): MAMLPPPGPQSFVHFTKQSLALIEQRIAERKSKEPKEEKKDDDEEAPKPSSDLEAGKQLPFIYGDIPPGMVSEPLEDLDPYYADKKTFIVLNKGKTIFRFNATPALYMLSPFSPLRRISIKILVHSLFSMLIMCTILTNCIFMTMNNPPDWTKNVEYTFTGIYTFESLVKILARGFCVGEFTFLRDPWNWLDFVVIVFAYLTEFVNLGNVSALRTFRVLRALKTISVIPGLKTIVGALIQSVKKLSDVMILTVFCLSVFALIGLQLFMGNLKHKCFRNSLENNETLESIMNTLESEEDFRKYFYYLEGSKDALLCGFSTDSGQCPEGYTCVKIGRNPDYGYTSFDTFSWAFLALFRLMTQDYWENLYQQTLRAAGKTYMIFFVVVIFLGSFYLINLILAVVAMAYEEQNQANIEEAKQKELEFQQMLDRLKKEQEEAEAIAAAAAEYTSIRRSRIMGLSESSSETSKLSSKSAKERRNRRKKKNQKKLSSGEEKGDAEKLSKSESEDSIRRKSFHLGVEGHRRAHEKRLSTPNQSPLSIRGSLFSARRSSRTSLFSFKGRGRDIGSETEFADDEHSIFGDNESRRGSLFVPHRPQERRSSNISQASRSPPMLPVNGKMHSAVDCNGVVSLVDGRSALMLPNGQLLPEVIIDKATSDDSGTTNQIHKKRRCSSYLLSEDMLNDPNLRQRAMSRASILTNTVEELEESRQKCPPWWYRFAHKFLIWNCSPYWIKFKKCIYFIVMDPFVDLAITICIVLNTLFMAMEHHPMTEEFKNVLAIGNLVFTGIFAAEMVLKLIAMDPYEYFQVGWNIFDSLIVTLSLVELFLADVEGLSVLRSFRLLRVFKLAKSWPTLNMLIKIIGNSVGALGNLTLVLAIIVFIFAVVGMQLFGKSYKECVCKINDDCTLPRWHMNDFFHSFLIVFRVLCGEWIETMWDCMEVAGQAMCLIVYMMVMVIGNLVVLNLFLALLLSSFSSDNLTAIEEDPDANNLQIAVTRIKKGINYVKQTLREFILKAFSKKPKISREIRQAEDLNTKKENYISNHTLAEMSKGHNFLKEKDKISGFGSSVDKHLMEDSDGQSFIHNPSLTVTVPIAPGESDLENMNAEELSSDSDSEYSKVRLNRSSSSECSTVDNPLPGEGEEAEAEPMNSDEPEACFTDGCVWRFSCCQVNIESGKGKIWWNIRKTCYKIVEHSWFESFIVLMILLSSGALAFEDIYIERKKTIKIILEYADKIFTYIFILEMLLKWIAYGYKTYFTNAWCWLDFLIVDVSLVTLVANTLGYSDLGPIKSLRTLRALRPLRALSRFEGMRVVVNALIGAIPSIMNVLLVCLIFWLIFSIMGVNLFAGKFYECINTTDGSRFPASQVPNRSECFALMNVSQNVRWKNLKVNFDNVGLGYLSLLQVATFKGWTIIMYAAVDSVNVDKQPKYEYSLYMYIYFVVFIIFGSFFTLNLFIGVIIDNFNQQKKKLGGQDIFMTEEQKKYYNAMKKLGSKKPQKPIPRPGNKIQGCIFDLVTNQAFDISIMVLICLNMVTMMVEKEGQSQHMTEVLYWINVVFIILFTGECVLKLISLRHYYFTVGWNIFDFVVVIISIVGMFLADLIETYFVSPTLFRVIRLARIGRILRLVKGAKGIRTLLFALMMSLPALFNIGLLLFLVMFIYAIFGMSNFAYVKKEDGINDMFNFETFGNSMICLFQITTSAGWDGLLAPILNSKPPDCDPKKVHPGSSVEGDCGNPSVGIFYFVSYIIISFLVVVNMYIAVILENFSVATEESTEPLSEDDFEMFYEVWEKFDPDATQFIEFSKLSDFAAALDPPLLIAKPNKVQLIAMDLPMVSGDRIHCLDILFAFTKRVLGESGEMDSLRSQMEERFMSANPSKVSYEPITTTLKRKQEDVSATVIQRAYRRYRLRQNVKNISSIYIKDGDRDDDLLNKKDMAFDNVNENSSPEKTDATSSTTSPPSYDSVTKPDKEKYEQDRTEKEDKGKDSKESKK
Chain of NaV1.7 (Q15858 whole entry): as above

With `CC[C@H](C)[C@H](NC(=O)[C@H](CO)NC(=O)[C@H](CCCCN)NC(=O)[C@H](CCCNC(=N)N)NC(=O)[C@@H]1CSSC[C@@H]2NC(=O)[C@H](C)NC(=O)[C@H](CCCNC(=N)N)NC(=O)[C@H](CCCCN)NC(=O)[C@H](CO)NC(=O)[C@H](CC(=O)O)NC(=O)[C@@H]3CSSC[C@H](NC(=O)[C@H](CCC(=O)O)NC(=O)[C@H](CC(C)C)NC(=O)CNC(=O)[C@H](CCC(=O)O)NC(=O)[C@H](CSSC[C@H](NC(=O)[C@@H](N)Cc4ccc(O)cc4)C(=O)N[C@@H](CCC(N)=O)C(=O)N[C@@H](CCCCN)C(=O)N[C@@H](Cc4c[nH]c5ccccc45)C(=O)N[C@@H](CCSC)C(=O)N[C@@H](Cc4c[nH]c5ccccc45)C(=O)N[C@@H]([C@@H](C)O)C(=O)N3)NC2=O)C(=O)N[C@@H](CCCCN)C(=O)N[C@@H](CC(C)C)C(=O)N[C@@H](Cc2c[nH]c3ccccc23)C(=O)N1)C(N)=O` [SEQ ID NO: 138, [Glu20,Ser28]JzTx-V(1-29)] as the compound, how does the “% Peptide Remaining” value [1] read?
Its value is 100%.

What does the source list for `NC1=N[C@H](O)[C@H]2[C@H]3O[C@]4(O)O[C@@H]([C@@H](O)[C@@]2(N1)[C@@H]4O)[C@]3(O)CO` [TTX, tetrodotoxin]?
IC50 (Nav1.7 [2]): 4 nM; IC50 (Nav1.4): 5 nM; IC50 (Nav1.3): 2 to 15 nM; IC50 (Nav1.8): > 50000 nM; action potential firing, in words [3]: completely blocked action potential firing; IC50 (Nav1.6): 1 nM

What does the source list for `CC[C@H](C)[C@H](NC(=O)[C@H](CCCCN)NC(=O)[C@H](CCCNC(=N)N)NC(=O)[C@@H]1CSSC[C@@H]2NC(=O)[C@H](C)NC(=O)[C@H](CCCNC(=N)N)NC(=O)[C@H](CCCCN)NC(=O)[C@H](CO)NC(=O)[C@H](CC(=O)O)NC(=O)[C@@H]3CSSC[C@H](NC(=O)[C@H](CCC(=O)O)NC(=O)[C@H](CC(C)C)NC(=O)CNC(=O)[C@H](CCC(=O)O)NC(=O)[C@H](CSSC[C@H](NC(=O)[C@@H](N)Cc4ccc(O)cc4)C(=O)N[C@@H](CCC(N)=O)C(=O)N[C@@H](CCCCN)C(=O)N[C@@H](Cc4c[nH]c5ccccc45)C(=O)N[C@@H](CCSC)C(=O)N[C@@H](Cc4c[nH]c5ccccc45)C(=O)N[C@@H]([C@@H](C)O)C(=O)N3)NC2=O)C(=O)N[C@@H](CCCCN)C(=O)N[C@@H](CC(C)C)C(=O)N[C@@H](Cc2c[nH]c3ccccc23)C(=O)N1)C(=O)N[C@@H](Cc1c[nH]c2ccccc12)C(N)=O` [compound 112]?
terminal exposure (peptide plasma concentration) (male Sprague-Dawley rats [4]): 0.994 ± 0.184 µM; IC50 [5]: 261 nM; 1.x/1.7 ([5]; partially inactivated, rTTX-S / hNav1.7): 1135; block of hNav1.7 current (hNav1.7 [6]; 100 nM): approximately 80%; block of hNav1.7 current, in words (hNav1.7 [6]; 100 nM): did not completely block Nav1.7 current; also recorded: only partial inhibition; 1.x/1.7 (hNav1.7 [6]; partially inactivated, hNav1.7 / hNav1.7): 1; % Peptide Remaining [7]: 100%; % Peptide Remaining [8]: 100%; plasma concentration over the in vitro hNav1.7 IC50 (PX) ([9]; CD-1 mice, for 3 h): 26 fold; tolerability ([9]; mice): tolerated; 1.x/1.7 [10]: 1213; loss in potency in mouse DRG neurons relative to the human clone of Nav1.7 ([10]; TTX-sensitive current): ~1000 fold; 1.x/1.7 ([10]; partially inactivated, mTTX-S (fresh DRG) / hNav1.7): 917; effect in the first or acute phase (0-5 min) (male Sprague-Dawley rats [11]; 1-hour pre-treatment, male Sprague-Dawley rats): no effect; terminal plasma exposure (male Sprague-Dawley rats [11]; 45 min post-formalin injection): 1.18 ± 0.156 µM; terminal plasma exposure (male CD-1 mice [12]; 2 h post peptide injection): 1.75 ± 0.536 µM; thermal latency compared to vehicle (PBS) (male CD-1 mice [12]; CFA thermal hyperalgesia, male CD-1 mice): no effect; Nav1.4/Nav1.7 (hNav1.7 [13]): 178; selectivity against hNav1.4 relative to hNav1.7 (hNav1.4): > 1000 fold; level at time molar at 2 h (in vivo [14]; 0.1 mg/kg): 24.8 ± 6.68 nM; level at time molar at 2 h (in vivo [14]; 0.3 mg/kg): 121 ± 29.6 nM; level at time molar at 2 h (in vivo [14]; 1 mg/kg): 419 ± 226 nM; level at time molar at 2 h (in vivo [15]): 994 ± 184 nM; terminal plasma exposure (male CD-1 mice [16]; 0.1 mg/kg s.c., 45 min post-formalin injection, mean±SEM): 0.0278 ± 0.0105 µM; terminal plasma exposure (male CD-1 mice [16]; 0.3 mg/kg s.c., 45 min post-formalin injection): 0.121 ± 0.0411 µM; pain response relative to the vehicle, first phase (male CD-1 mice [16]; 1 mg/kg s.c., 1-hour pre-treatment): may have slightly increased the pain response; terminal plasma exposure (male CD-1 mice [16]; 1.0 mg/kg s.c., 45 min post-formalin injection): 0.412 ± 0.0858 µM; plasma concentration over the IC50 for blocking TTX-S current in mouse DRG neurons (WCPC) (male CD-1 mice [16]; 5.0 mg/kg s.c.): about 10 fold; terminal plasma exposure (male CD-1 mice [16]; 5.0 mg/kg s.c., 45 min post formalin injection): 2.63 ± 0.777 µM; IC50 (hNav1.7 [17]): 1.59 nM; % Peptide Remaining [18]: 100%; selectivity for Nav1.7 over Nav1.6 (hNav1.6; PatchXpress): 454 fold; Nav1.6/Nav1.7 (hNav1.6; Table 15, ratio of PX tonic IC50 values): 454; IC50 (hNav1.6; Table 15, read-out: PX hNav1.6 Tonic IC50): 720 nM; terminal exposure (peptide plasma concentration) (male CD-1 mice [19]; 0.1 mg/kg s.c.): 0.0248 ± 0.00668 µM; terminal exposure (peptide plasma concentration) (male CD-1 mice [19]; 0.3 mg/kg s.c.): 0.121 ± 0.0296 µM; terminal exposure (peptide plasma concentration) (male CD-1 mice [19]; 1.0 mg/kg s.c.): 0.419 ± 0.226 µM; terminal exposure (peptide plasma concentration) (male CD-1 mice [19]; 5.0 mg/kg s.c.): 4.73 ± 0.584 µM; total basic movement component of locomotor activity (male CD-1 mice [19]; [24]): No doses of peptide significantly decreased exploratory behavior; total rearing component of locomotor activity (male CD-1 mice [19]; [24]): No doses of peptide significantly decreased exploratory behavior; total basic movement, total fine movement, total rearing, or total time rearing (male CD-1 mice [19]; 0.1, 0.3, or 1.0 mg/kg s.c., 1-hour pre-treatment): no effect

With Huwentoxin-IV [HWTX-IV] as the compound, how does the “effect on TTX-resistant VGSCs” value (TTX-resistant VGSCs) read?
The value was “no effect”.

What about the IC50 [20] of the same compound?
The IC50 was 30 nM.

With OD1 [OD 1] as the compound, how does the EC50 (NaV1.7 [21]) read?
The EC50 was 4.5 nM.

For “YCQKWMWTCDSERKCCEGMVCRLWCKKKLW [ProTx-II]”, which “efficacy in mechanical hyperalgesia study” value (rats [22]) is on record?
Its value is “not efficacious”.

And the tolerability (rats [23])?
Its tolerability is “lethal”.
